Test [1] concerns T1, human STING CBD-CTT (152-379).
T1 construct: made in house; host or cells: E. coli BL21 DE3 RIPL Codon Plus
Put plainly: Thermal shift assay (TSA) binding to purified STING. The source says: Purified STING protein was used as bait to identify binding compounds, using a thermal shift assay (TSA). A library containing 250,000 compounds (Enamine, Monmouth Jct., NJ) was surveyed. Compounds that bound to STING were then examined for their ability to inhibit STING signaling, see Examples 1-4 vide infra. In the presence of cytosolic DNA species, STING becomes activated to drive the transcription of cytokines such as type I IFN. Compounds binding to STING via TSA were subsequently examined for their ability prevent cytosolic DNA species from activating the type I interferon (IFN) promoter, using a live cell assay. This assay comprised immortalized human fibroblasts (hTERT) that were stably transfected with the type I IFN promoter driving luciferase as well as the CMV promoter driving SEAP (hTERT-pIFNβ-Glu). The ability of the small molecules to prevent activation of the type I IFN promoter and the transcription of luciferase, but not SEAP in response to cytosolic DNA species can be assessed. […]
Thermal High Throughput Screen: The denaturation profile of purified STING (STING152-379H) was calibrated using a fluorometer equipped with temperature control (a qPCR apparatus with 320 well capacity). […] Curves were measured for STING only and STING+small molecule, and ΔTm was calculated. […]

Another test has as its system STING trafficking. Put plainly: Confocal analysis of STING trafficking in hTERT cells. As to conditions: 6 hours after ISD transfection. The test is classed as cell-based, human. How it is done: FIG. 1D are photographs showing confocal analysis for STING trafficking was performed at 6 hours after ISD transfection with/without W1, treatment same as FIG. 1A, according to an embodiment of the invention;
(§1) Immunofluorescence Microscopy: Cells were cultured and treated in their appropriate media on Lab-Tek II chamber slides. Cell were fixed with 4% paraformaldehyde for 15 minutes in at 37° C. and permeabilized with 0.05% Triton X-100 for 5 minutes at room temperature. Immunostaining was performed with rabbit-anti-STING polyclonal, rabbit-anti-IRF3 (Santa Cruz Biotechnology) or rabbit-anti-p65 (Cell Signaling) followed by fluorescence conjugated secondary antibodies (FITC-goat-anti-rabbit) (Invitrogen).

The test system of test [2] is IFNβ expression and production. Put plainly: IFNβ expression and production in normal hTERT cells (qPCR, ELISA). The test is classed as cell-based, human. The conditions noted are these: ISD transfection. As for the experimental part: The ability of compound W1 administered onto normal hTERT cells to prevent cytosolic DNA from activating STING was assessed (FIGS. 1B-H). […] In addition, the level of STING phosphorylation (STING is phosphorylated following activation) and the subsequent phosphorylation of TBK1, the kinase of IRF3 was assessed. Phosphorylation of TBK1 and IRF3 are required for activation of the type I IFN promoter.
Interferon R Elisa analysis: Interferon R Elisa was performed using either the IFNβ human ELISA Kit from Invitrogen or the Human IFNβ ELISA Kit from PBL Interferon Source following the manufacturer's protocol.
Quantitative Real time PCR (qPCR) Total RNA were reverse-transcribed using M-MLV Reverse Transcriptase (Promega). Real-time PCR was performed using Taqman Gene Expression Assay (Applied Biosystems) for innate immune genes and inflammatory cytokines.
(In qPCR the cycle at which signal appears reflects the starting amount.)

The subject of test [3] is IRF3 translocation induced by dsDNA (ISD). Put plainly: IRF3 translocation inhibition, confocal/immunofluorescence after ISD transfection. The test is classed as cell-based. As to conditions: Homo sapiens, % means blockage of IRF3 translocation induced by dsDNA (ISD). How it is done:
Inhibition of IFNβ expression was measured by Luciferase induction at 24 hours after transfection of ISD. […]. […] FIG. 3H qPCR of IFNβ 1 performed in MEFs treated same as in FIG. 3A. FIG. 3I qPCR of CCL5 performed in MEFs treated same as in FIG. 3A.
as §1

Structures are written as SMILES.

As for `Cc1cc([N+](=O)[O-])ccc1S(=O)(=O)Nc1nc2cc(C(F)(F)F)ccc2[nH]1` [Compound W1, 2-methyl-4-nitro-N-[5-(trifluoromethyl)-1H-1,3-benzodiazol-2-yl]benzene-1-sulfonamide], the “binding to STING” value in test [1] is reported as “binds to STING”. Also, the STING trafficking entry in the test with STING trafficking is recorded as “effectively preventing STING trafficking”. Moreover, the “IFNβ expression and production” value in test [2] was “dramatically decreased”. Also, the inhibition at 25 µM in test [3] was 40 to 50%.

As usually defined, the inhibition is the relative decrease from the control value, in per cent. Read a low inhibition as little suppression.

The values are drawn from patent US20240270737A1, “SMALL MOLECULAR INHIBITORS OF STING SIGNALING COMPOSITIONS AND METHODS OF USE” (STINGINN INC., priority 2021, published 2024).
